Laboratory results as given in publication PMC8820820, “Feasibility and safety of targeting mitochondria for cancer therapy – preclinical characterization of gamitrinib, a first-in-class, mitochondriaL-targeted small molecule Hsp90 inhibitor” (Cancer Biology & Therapy, 2022).
Read-outs that look alike come from different tables or passages of the source.

Columns and labels:
[1] = Phase I, cytochrome P450-mediated human liver microsome metabolism; conditions: 0.5 µM, human liver microsomes
Caco-2 intestinal cells = test: Bidirectional Caco2 cell monolayer permeability; conditions: Caco-2
Description: Caco-2 and HEK293 cells were obtained from the American Type Culture Collection (ATCC, Manassas, VA) and grown in culture according to the supplier’s specifications. In some experiments, HEK293 cells were stably transfected with hERG cDNA, and polyclonal cultures were maintained in the presence of 250 µg/ml geneticin (G418).
Bidirectional Caco2 cell monolayer permeability. Caco2 cells (2x10^4/well) were seeded onto apical chambers of a 24-multiwell insert plate and incubated at 37°C in 5% CO2. After 21 d, the transepithelial electrical resistance (TEER) in ohms was read for each insert well as a quality control for monolayer integrity (>900 ohms or 300 ohms cm^2). The cell monolayers were incubated with 400 µL transport buffer on the apical (A) and 1.2 mL on the basolateral (B) sides for 30 min. After preincubation, dosing solution was added to the apical (400 µL, A-to-B, donor) or basolateral sides (1.2 mL, B-to-A, donor) or receiving buffer to the apical (400 µL, B-to-A, receiver) or basolateral sides (1.2 mL, A-to-B, receiver) for 90 min at 37°C in 5% CO2. […] Papp’A>B (nm/s) was calculated with Equation 1.
Papp Efflux Ratio (ER) was calculated with Equation 2.
ER=Papp,B>APapp,A>BEquation 2: […]
Propranolol (high permeability marker, non-P-gp substate) and digoxin (P-gp substrate) were used as controls.

KCNQ1/mink = KCNQ1/mink (Homo sapiens, UniProt P51787); test: Ion channel screening; format: cell-based; conditions: 10 µM
[2] = design: species or system beagle dogs; conditions: dog, in vivo
Description: (§1) Eighteen male and female (5–6 mo old) purebred beagle dogs (Cumberland, VA) were acclimated for 47 d (20°C to 26°C, relative humidity 30–70%, 10 or greater air changes/h, and a 12-h light/dark cycle) prior to study initiation. Animals were given water ad libitum and Certified Canine Diet #5007 (PMI Nutrition International Certified LabDiet®) for 4 to 5 h each day. At study initiation, animal body weights ranged from 8.6 to 11.5 kg for males and 6.0 to 9.4 kg for females. At least 1 week prior to initiation of dosing, animals were fasted overnight, anesthetized, and a catheter attached to a subcutaneous vascular access port was surgically implanted into a jugular vein. Animals were acclimated to infusion jackets prior to catheter implantation surgery. Animals were infused with sterile saline at a dose rate of 5 mL/h when the vascular access ports were accessed and when animals were connected to the infusion system (except when dosed with the test or vehicle control article). The patency of each catheter was checked as needed. Prednisolone tablets were administered orally at 2 mg/kg the night prior to dosing. Diphenhydramine (5 mg/kg; IM injection 0.1 mL/kg, 50 mg/mL) was administered prior to dosing and post the start of infusion (d 1 only). Male and female dogs received dose levels of Gamitrinib of 1.25, 3.33 and 6.25 mg/kg/dose formulated as indicated above during a 1 h infusion on d 1, 8, 11, 15, 18, 22, 25, 29, 32, and 36 at a volume of 2 mL/kg. The vehicle control was as above. […] Dosing was stopped, and 23 of 24 animals were administered additional diphenhydramine, 11 were administered Flunixin meglumine and buprenorphine, and 6 were administered acepromazine. Symptoms subsided in all animals after completion of these interventions. As a result of these observations, the polysorbate levels, which were increased from 0.025% (w/v) to 0.125% (w/v) to minimize precipitation, were returned to the original concentrations; 2 mg/kg prednisone was administered orally the night prior to dosing; and the diphenhydramine pretreatment dose was updated to 5 mg/kg 15 to 30 min prior to dosing. Detailed observations were conducted for each animal up to seven times during the predose phase, prior to dosing on d 1, 8, 15, 22, 29, and 36 of the dosing phase, and on d 1, 7, and 14 of the recovery phase. Blood samples (1 mL) were collected via the cephalic vein 5, 15, and 30 min and 1, 4, 8, and 24 h post the end of infusion on d 8 and 36 of the dosing phase. Formalin-fixed and paraffin-embedded tissue samples collected at the end of the study (d 39) were processed for histologic examination.

beagle dogs = test: Toxicity in beagle dogs; format: in vivo
Description: as §1

CYP2B6 = target: T1, CYP2B6 (Homo sapiens, UniProt P20813); conditions: microsomes
T1 sequence (P20813 1-491): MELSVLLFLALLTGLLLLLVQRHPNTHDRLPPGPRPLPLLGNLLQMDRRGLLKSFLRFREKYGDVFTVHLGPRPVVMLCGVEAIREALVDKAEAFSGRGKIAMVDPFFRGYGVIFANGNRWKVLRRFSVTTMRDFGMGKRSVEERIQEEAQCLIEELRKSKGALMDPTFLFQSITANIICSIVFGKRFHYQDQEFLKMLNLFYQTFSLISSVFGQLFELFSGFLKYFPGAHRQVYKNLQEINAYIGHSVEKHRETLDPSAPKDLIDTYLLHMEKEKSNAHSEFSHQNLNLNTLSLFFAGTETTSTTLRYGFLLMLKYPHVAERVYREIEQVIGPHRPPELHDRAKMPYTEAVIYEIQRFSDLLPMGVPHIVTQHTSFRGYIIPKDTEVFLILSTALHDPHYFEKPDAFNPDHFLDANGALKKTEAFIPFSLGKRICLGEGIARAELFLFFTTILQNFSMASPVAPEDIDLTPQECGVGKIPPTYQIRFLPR
Description: (§2) CYP inhibition in liver microsomes. […] Samples were analyzed for metabolite formation by LC-MS/MS. The results were expressed using the peak area ratio of analyte to internal standard, based on the calibration curves.
(§3) Where Range=fitted uninhibited value, s=slope factor, x=inhibitor concentration, y=% control activity.

CYP3A4 = CYP3A4 (Homo sapiens, UniProt P08684); conditions: microsomes
Description: as §2, §3

tumor = conditions: mice; cited from earlier work

KCNQ1/mink, sequence (P51787 whole entry): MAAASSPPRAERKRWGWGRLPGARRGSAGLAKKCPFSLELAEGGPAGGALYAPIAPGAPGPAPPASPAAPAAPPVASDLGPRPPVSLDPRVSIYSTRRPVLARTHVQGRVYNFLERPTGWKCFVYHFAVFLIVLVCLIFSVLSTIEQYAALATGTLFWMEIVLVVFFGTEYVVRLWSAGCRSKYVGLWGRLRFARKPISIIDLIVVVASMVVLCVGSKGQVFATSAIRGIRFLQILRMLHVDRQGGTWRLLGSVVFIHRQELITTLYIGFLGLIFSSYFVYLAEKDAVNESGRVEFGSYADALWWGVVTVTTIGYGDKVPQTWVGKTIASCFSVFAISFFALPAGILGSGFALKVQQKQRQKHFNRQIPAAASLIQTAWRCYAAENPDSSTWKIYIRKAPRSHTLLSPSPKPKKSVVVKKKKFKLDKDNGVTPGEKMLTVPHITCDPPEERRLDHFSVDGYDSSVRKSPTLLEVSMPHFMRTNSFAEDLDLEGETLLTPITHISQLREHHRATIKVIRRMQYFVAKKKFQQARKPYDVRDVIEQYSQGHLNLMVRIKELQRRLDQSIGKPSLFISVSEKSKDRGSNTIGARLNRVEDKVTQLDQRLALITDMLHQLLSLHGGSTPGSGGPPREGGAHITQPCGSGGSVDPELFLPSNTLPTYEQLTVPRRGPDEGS
CYP3A4, sequence (P08684 whole entry): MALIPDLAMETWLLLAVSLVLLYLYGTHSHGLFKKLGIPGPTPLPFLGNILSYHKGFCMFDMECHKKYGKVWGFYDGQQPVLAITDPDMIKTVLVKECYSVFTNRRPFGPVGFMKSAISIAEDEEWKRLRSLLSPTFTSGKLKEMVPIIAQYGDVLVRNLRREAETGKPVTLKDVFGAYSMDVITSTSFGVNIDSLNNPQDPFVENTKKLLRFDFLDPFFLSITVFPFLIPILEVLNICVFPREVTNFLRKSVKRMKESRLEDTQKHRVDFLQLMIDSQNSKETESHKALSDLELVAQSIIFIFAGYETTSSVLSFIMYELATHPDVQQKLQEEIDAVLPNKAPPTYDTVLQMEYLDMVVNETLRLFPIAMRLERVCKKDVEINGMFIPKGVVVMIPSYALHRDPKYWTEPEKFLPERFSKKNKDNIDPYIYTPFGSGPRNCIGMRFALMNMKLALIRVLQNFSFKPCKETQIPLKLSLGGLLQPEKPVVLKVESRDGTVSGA

SMILES: COC1C=CC=C(C)C(=O)NC2=CC(=O)C(NCCCCCC[P+](c3ccccc3)(c3ccccc3)c3ccccc3)=C(CC(C)CC(OC)C(O)C(C)C=C(C)C1OC(N)=O)C2=O.F[P-](F)(F)(F)(F)F (centres unmarked) [Gamitrinib]
- elimination rate constant (k) [1]: 0.041
- half-life (t½) [1]: 16.7 min
- intrinsic clearance (CLint) [1]: 3.30 mL/min/g
- Papp Efflux Ratio (ER) (Caco-2 intestinal cells): 5.77
- Papp, A>B (Caco-2 intestinal cells): 0.19 ×10⁻⁶ cm/s
- Papp, B>A (Caco-2 intestinal cells): 1.094 ×10⁻⁶ cm/s
- Pexact Efflux Ratio (Caco-2 intestinal cells): 5.54
- Pexact,A>B (Caco-2 intestinal cells): 0.197 ×10⁻⁶ cm/s
- Pexact,B>A (Caco-2 intestinal cells): 1.092 ×10⁻⁶ cm/s
- inhibition of KCNQ1/mink currents (KCNQ1/mink): 22.5 ± 1.1%
- AUC0–24 ([2]; 3.33 mg/kg): 1740 ± 713 ng·h/mL
- Cmax ([2]; 3.33 mg/kg): 560 ± 404 ng/mL
- AUC0–24 ([2]; 6.25 mg/kg): 3290 ± 1090 ng·h/mL
- Cmax ([2]; 6.25 mg/kg): 1260 ± 556 ng/mL
- Bone marrow and liver parameters (beagle dogs; dog, in vivo): unremarkable
- organ weight (beagle dogs; dog, in vivo): No Gamitrinib-related changes in organ weight
- kidney microscopic findings (beagle dogs; dog, in vivo, 6.25 mg/kg): slight to moderate kidney tubular degeneration/regeneration
- serum urea nitrogen and creatinine (beagle dogs; dog, in vivo, 6.25 mg/kg): trend of increased serum urea nitrogen and creatinine
- NOAEL (beagle dogs; dogs, IV for 36 d): 3.33 mg/kg/dose
- highest non-severely toxic dose (HNSTD) (beagle dogs; dogs, IV for 36 d): 6.25 mg/kg/dose
- IC50 (CYP2B6): 16 µM
- IC50 (CYP3A4): 0.12 to 0.2 µM
- therapeutically effective dose (tumor): 10 mg/kg
